Measurements from ChEMBL document CHEMBL1136023, “Antifungal Sordarins. Part 4: synthesis and structure--activity relationships of 3',4'-fused alkyl-tetrahydrofuran derivatives” (2002).
Converted amounts (≈) assume the structure as drawn.

Tests used:
Type in all cases: functional
Candida albicans [1] = experiment: Minimal inhibitory effect against the Candida albicans (4711E).
Candida albicans [2] = experiment: Minimal inhibitory effect against the Candida albicans (2005E).
Cryptococcus neoformans = experiment: Minimal inhibitory effect against the Cryptococcus neoformans (2867E).
Candida parapsilosis = experiment: Minimal inhibitory effect against the Candida parapsilosis (2372E).; details: Lodderomyces parapsilosis
Kluyveromyces marxianus = experiment: Minimal inhibitory effect against the Candida pseudotropicalis (2371E).
Nakaseomyces glabratus = experiment: Minimal inhibitory effect against the Candida glabrata (2375E).
Candida tropicalis = experiment: Minimal inhibitory effect against the Candida tropicalis (2808E).
Aspergillus flavus = experiment: Minimal inhibitory effect against the Aspergillus flavus (C1150).

Row | SMILES | MIC (Candida albicans [1]) | MIC (Candida albicans [2]) | MIC (Cryptococcus neoformans) | MIC (Candida parapsilosis) | MIC (Kluyveromyces marxianus) | MIC (Nakaseomyces glabratus) | MIC (Candida tropicalis) | MIC (Aspergillus flavus)
1 | CC(C)C1=CC2CC3(C=O)[C@@H]4CC[C@@H](C)[C@H]4CC2(CO[C@H]2C[C@@H]4OC(C)(C)O[C@@H]4[C@@H](C)O2)C13C(=O)O (stereo partly specified) | 0.004 mg/L (≈ 0.00796 µM) | < 0.001 mg/L | 0.12 mg/L (≈ 0.239 µM) | > 125 mg/L | 0.004 mg/L (≈ 0.00796 µM) | 31 mg/L (≈ 61.7 µM) | 0.12 mg/L (≈ 0.239 µM) | > 125 mg/L
2 | CC(C)C1=CC2CC3(C=O)[C@@H]4CC[C@@H](C)[C@H]4CC2(CO[C@H]2C[C@H]4[C@H](OCC4(C)C)[C@@H](C)O2)C13C(=O)O (stereo partly specified) | < 0.001 mg/L | < 0.001 mg/L | 4 mg/L (≈ 7.99 µM) | > 125 mg/L | < 0.001 mg/L | 8 mg/L (≈ 16 µM) | 0.06 mg/L (≈ 0.12 µM) | > 125 mg/L
3 | CC[C@H]1CO[C@H]2[C@@H]1C[C@H](OCC13C[C@@H]4[C@H](C)CC[C@H]4C4(C=O)CC1C=C(C(C)C)C34C(=O)O)O[C@@H]2C (stereo partly specified) | < 0.001 mg/L | < 0.001 mg/L | < 0.25 mg/L | 4 mg/L (≈ 7.99 µM) | < 0.001 mg/L | 0.5 mg/L (≈ 0.999 µM) | < 0.001 mg/L | 62 mg/L (≈ 124 µM)
4 | CC[C@@H]1CO[C@H]2[C@@H]1C[C@H](OCC13C[C@@H]4[C@H](C)CC[C@H]4C4(C=O)CC1C=C(C(C)C)C34C(=O)O)O[C@@H]2C (stereo partly specified) | < 0.001 mg/L | < 0.001 mg/L | 1 mg/L (≈ 2 µM) | > 125 mg/L | < 0.001 mg/L | 4 mg/L (≈ 7.99 µM) | < 0.001 mg/L | > 125 mg/L
5 | CC(C)C1=CC2CC3(C=O)[C@@H]4CC[C@@H](C)[C@H]4CC2(CO[C@H]2C[C@@H]4OC[C@@H](C)[C@@H]4[C@@H](C)O2)C13C(=O)O (stereo partly specified) | < 0.001 mg/L | < 0.001 mg/L | 1 mg/L (≈ 2.05 µM) | > 125 mg/L | < 0.001 mg/L | 8 mg/L (≈ 16.4 µM) | 0.008 mg/L (≈ 0.0164 µM) | > 125 mg/L
6 | CC(C)C1=CC2CC3(C=O)[C@@H]4CC[C@@H](C)[C@H]4CC2(CO[C@H]2C[C@H]4[C@H](OC[C@H]4C(C)C)[C@@H](C)O2)C13C(=O)O (stereo partly specified) | < 0.001 mg/L | < 0.001 mg/L | 4 mg/L (≈ 7.77 µM) | > 125 mg/L | < 0.001 mg/L | 62 mg/L (≈ 120 µM) | 2 mg/L (≈ 3.89 µM) | > 125 mg/L
7 | CC(C)C1=CC2CC3(C=O)[C@@H]4CC[C@@H](C)[C@H]4CC2(CO[C@H]2C[C@H]4[C@H](OC[C@@H]4C)[C@@H](C)O2)C13C(=O)O (stereo partly specified) | < 0.001 mg/L | < 0.001 mg/L | 0.25 mg/L (≈ 0.514 µM) | 2 mg/L (≈ 4.11 µM) | 0.004 mg/L (≈ 0.00822 µM) | 0.5 mg/L (≈ 1.03 µM) | 0.008 mg/L (≈ 0.0164 µM) | 62 mg/L (≈ 127 µM)
8 | CC(C)C1=CC2CC3(C=O)[C@@H]4CC[C@@H](C)[C@H]4CC2(CO[C@H]2C[C@H]4[C@H](OC[C@H]4C)[C@@H](C)O2)C13C(=O)O (stereo partly specified) | < 0.001 mg/L | 0.001 mg/L (≈ 0.00205 µM) | 4 mg/L (≈ 8.22 µM) | > 125 mg/L | 0.001 mg/L (≈ 0.00205 µM) | 4 mg/L (≈ 8.22 µM) | 0.004 mg/L (≈ 0.00822 µM) | > 125 mg/L
9 | CC(C)C1=CC2CC3(C=O)[C@@H]4CC[C@@H](C)[C@H]4CC2(CO[C@H]2C[C@H]4[C@H](OC[C@@H]4C(C)C)[C@@H](C)O2)C13C(=O)O (stereo partly specified) | < 0.001 mg/L | < 0.001 mg/L | 0.25 mg/L (≈ 0.486 µM) | 16 mg/L (≈ 31.1 µM) | < 0.001 mg/L | 2 mg/L (≈ 3.89 µM) | 0.004 mg/L (≈ 0.00777 µM) | > 125 mg/L
10 | CC(C)C1=CC2CC3(C=O)[C@@H]4CC[C@@H](C)[C@H]4CC2(CO[C@H]2C[C@@H]4OC[C@H](C)[C@@H]4[C@@H](C)O2)C13C(=O)O (stereo partly specified) | 0.004 mg/L (≈ 0.00822 µM) | 0.001 mg/L (≈ 0.00205 µM) | 0.5 mg/L (≈ 1.03 µM) | > 125 mg/L | < 0.001 mg/L | 16 mg/L (≈ 32.9 µM) | 0.03 mg/L (≈ 0.0616 µM) | > 125 mg/L
11 | CC(C)C1=CC2CC3(C=O)[C@@H]4CC[C@@H](C)[C@H]4CC2(CO[C@@H]2O[C@H](C)[C@H]4OC[C@@H](C)C4[C@@H]2O)C13C(=O)O (single isomer, unassigned) | 0.25 mg/L (≈ 0.497 µM) | 0.008 mg/L (≈ 0.0159 µM) | 31 mg/L (≈ 61.7 µM) | 125 mg/L (≈ 249 µM) | 0.25 mg/L (≈ 0.497 µM) | 62 mg/L (≈ 123 µM) | 0.5 mg/L (≈ 0.995 µM) | > 125 mg/L
12 | CC[C@@H]1CO[C@H]2C1[C@H](O)[C@H](OCC13C[C@@H]4[C@H](C)CC[C@H]4C4(C=O)CC1C=C(C(C)C)C34C(=O)O)O[C@@H]2C (single isomer, unassigned) | 0.12 mg/L (≈ 0.232 µM) | 0.015 mg/L (≈ 0.029 µM) | < 0.25 mg/L | 125 mg/L (≈ 242 µM) | 0.06 mg/L (≈ 0.116 µM) | 16 mg/L (≈ 31 µM) | 0.25 mg/L (≈ 0.484 µM) | > 125 mg/L
13 | CC[C@H]1CO[C@H]2C1[C@H](O)[C@H](OCC13C[C@@H]4[C@H](C)CC[C@H]4C4(C=O)CC1C=C(C(C)C)C34C(=O)O)O[C@@H]2C (single isomer, unassigned) | 0.12 mg/L (≈ 0.232 µM) | 0.03 mg/L (≈ 0.0581 µM) | < 0.25 mg/L | 125 mg/L (≈ 242 µM) | 0.06 mg/L (≈ 0.116 µM) | 8 mg/L (≈ 15.5 µM) | 0.5 mg/L (≈ 0.968 µM) | > 125 mg/L
14 | CC(C)C1=CC2CC3(C=O)[C@@H]4CC[C@@H](C)[C@H]4CC2(CO[C@@H]2O[C@H](C)[C@H]4OC[C@H](C)C4[C@@H]2O)C13C(=O)O (single isomer, unassigned) | 1 mg/L (≈ 1.99 µM) | 0.5 mg/L (≈ 0.995 µM) | 1 mg/L (≈ 1.99 µM) | 125 mg/L (≈ 249 µM) | 1 mg/L (≈ 1.99 µM) | 31 mg/L (≈ 61.7 µM) | 2 mg/L (≈ 3.98 µM) | > 125 mg/L
15 | OC(Cn1cncn1)(Cn1cncn1)c1ccc(F)cc1F [FLUCONAZOLE] | 0.12 mg/L (≈ 0.392 µM) | – | – | 0.5 mg/L (≈ 1.63 µM) | – | 4 mg/L (≈ 13.1 µM) | 2 mg/L (≈ 6.53 µM) | –
